{"source": "patent US4721707A", "about": "“Complex salt” (priority 1982, dated 1988)", "key": {"[1]": {"test": "Solubility of SNP, TMC, TNP and mixtures (Example 10)", "type": "physicochemical", "details": "for amount of solvent giving clear solution: 22° C., SNP 50 mg, TMC 250 mg; for solubility of mixtures / TNP: borderline amount of solvent: 50 + 500 mg (1 + 10)", "procedure": "At room temperature (22° C.) clear solutions were obtained in the following solvents from the following compounds: […]"}, "[2]": {"system": "blood pressure", "test": "Infusion dosage required to achieve a given lowering of the blood pressure in a cat under Nembutal narcosis (Table I, FIG. 4)", "type": "in vivo", "parameters": "key to Infusion dosage required for lowering of blood pressure (symbol): *: Limit of activity and/or predominance of toxic side effects", "details": "for Infusion dosage required for lowering of blood pressure / Infusion dosage required for lowering of blood pressure (symbol): i.v. infusion", "procedure": "This is evident, for example, from the following experiment:\nThe various infusion solutions listed below were infused i.v. in succession, with appropriate recovery intervals, into a male, spontaneously respiring cat weighing 3.7 kg under Nembutal narcosis, and the dosages required to achieve a given lowering of the blood pressure were determined.\nFor the preparation of the infusion solutions, the substances or their concentrated stock solutions were diluted with 0.9% sodium chloride solution to a uniform infusion strength of 9 mg/100 ml (90 ug/ml). All solutions were freshly prepared and infused with the exclusion of light (aluminium foil) corresponding to the dosages given below.\nThe values given in Table I hereinafter were determined graphically.\nFIG. 4, a comparison of equieffective doses of A, B, C, D and E, is derived from the figures in Table I, and further indicates the unobvious superiority of infusion solutions having a weight ration of less than 1:10 of the salts.\nOn the Y-axis, the weight percent of the trimethaphan ion in trimethaphan camsylate needed to achieve the indicated level of hypotension reduction is always set at 100% for each level, indicating the infusion solution of C. The X-axis measures the weight of nitroprusside ion expressed as a weight percent of the trimethaphan ion needed; B, having no trimethaphan, is set at 0 weight percent. The percents for A, D, and E are as indicated.\nThe hypotenuse of the triangle indicates the hypotensive effect expected to result from using mixtures of nitroprusside and trimethaphan ions. […] The lower and more to the left the values are, the higher the degree of synergism."}, "[3]": {"system": "patients", "details": "infusion in patients; listed as TMC; cited from earlier work"}, "[4]": {"system": "blood pressure", "details": "TMC; cited from earlier work"}, "[5]": {"system": "rats", "details": "i.v.; cited from earlier work"}, "[6]": {"test": "Solubility / dissolution of I and of mixtures of I and sodium thiosulphate pentahydrate", "type": "physicochemical", "details": "for solubility in weaker ethanol: weaker than 50% ethanol", "procedure": "Mixtures of I and thiosulphate must not however, be heated in solution above 50° C., since otherwise the trimethaphan cation can decompose.\nTherefore, the problem arose to find a physiologically acceptable solvent in which a mixture of I and thiosulphate in the weight ratio of about 1:1 to about 1:40 can dissolve to at least 5-10%, in a temperature range which for practical reasons should embrace temperatures between about 15° C. and about 35° C. Moreover, the concentrated solution should be able to dissolve without problem in the amount (250-1000 ml) of physiological sodium chloride solution or isotonic (5%) glucose solution required for final dilution.\nFor example, the mixture of 50 mg of I and 1000 mg of sodium thiosulphate pentahydrate dissolved"}, "[7]": {"type": "physicochemical", "details": "room temperature; for storability: light excluded", "procedure": "(§1) The semihydrate forms compact needles from water (1/2H2 O calculated 0.94%, found 1.00%). […] Its solubility in water is 0.2% at room temperature. Its solubility in 60% ethanol is much better, and is about 3% at room temperature.\nFor the preparation of an infusion solution, the ampoule contents are dissolved in at least 220, at most 900 ml of sterile 0.9% sodium chloride solution or 5% glucose solution by vigorous shaking for a short time, whereafter the volume is brought to 250, 500 or 1000 ml. The infusion vessels and tubes are either to be covered with aluminum foil or must consist of material which is opaque to light.\n50 mg of finely pulverized (+)-bis-(trimethaphan)-nitroprusside are filled into a sterilized, brown 5 ml flask closable with a synthetic stopper. 3 ml of 60% ethanol are sealed in a solvent ampoule and sterilized. […] Immediately before use the solid substance is dissolved in the solvent and the thus-obtained stock solution is used for the preparation of the infusion solution."}, "[8]": {"test": "Solubility of (+)-bis-(trimethaphan)-nitroprusside and its semihydrate (Example 1)", "type": "physicochemical", "description": "as §1"}}, "note": "“Also recorded” adds a separate entry of the source.", "data": [{"molecule": "O=C1N(Cc2ccccc2)C2C[S+]3CCCC3C2N1Cc1ccccc1", "note": "(stereo not shown) [C, trimethaphan camsylate, reference compound]", "values": [{"measurement": "amount of solvent giving clear solution", "setting": "[1]; 5% dextrose", "value": 10, "unit": "mL"}, {"measurement": "amount of solvent giving clear solution", "setting": "[1]; 40% ethanol", "value": 10, "unit": "mL"}, {"measurement": "amount of solvent giving clear solution", "setting": "[1]; 60% ethanol", "value": 2, "unit": "mL"}, {"measurement": "amount of solvent giving clear solution", "setting": "[1]; water", "value": 10, "unit": "mL"}, {"measurement": "Infusion dosage required for lowering of blood pressure", "setting": "[2]; -20 mm Hg, cat", "value": 6.0, "unit": "ug/kg · min"}, {"measurement": "Infusion dosage required for lowering of blood pressure", "setting": "[2]; -30 mm Hg, cat", "value": 18, "unit": "ug/kg · min"}, {"measurement": "Infusion dosage required for lowering of blood pressure", "setting": "[2]; -40 mm Hg, cat", "value": 55, "unit": "ug/kg · min"}, {"measurement": "Infusion dosage required for lowering of blood pressure (symbol)", "setting": "[2]; -50 mm Hg, cat", "value": "*"}, {"measurement": "Infusion dosage required for lowering of blood pressure (symbol)", "setting": "[2]; -55 mm Hg, cat", "value": "*"}, {"measurement": "Infusion dosage required for lowering of blood pressure (symbol)", "setting": "[2]; -75 mm Hg, cat", "value": "*"}, {"measurement": "activity compared with other test substances (in words)", "setting": "[2]; cat, comparison among A to E", "value": "significantly less active"}, {"measurement": "limit of activity", "setting": "[2]; lowering of blood pressure, cat", "value": -40, "unit": "mm Hg"}, {"measurement": "side effects", "setting": "[3]", "value": "tachycardia, mydriasis, cycloplegia, urine retention, xerostomia and constipation; also recorded: nausea or vomiting; also recorded: allergies"}, {"measurement": "dosage required for the controlled lowering of blood pressure", "setting": "[4]", "value": "about 30 ug/kg or more per minute"}]}, {"molecule": "O=S([O-])([O-])=S.[Na+].[Na+]", "note": "[sodium thiosulphate, reference compound]", "values": [{"measurement": "LD50", "setting": "[5]", "value": 2500, "unit": "mg/kg"}, {"measurement": "solubility in over 40% ethanol", "setting": "[6]; especially at temperatures <50° C.", "value": "only very limited solubility"}, {"measurement": "solubility in weaker ethanol", "setting": "[6]", "value": "better solubility"}]}, {"molecule": "(+)-bis-/(3aS,8aR,8bR)-1,3-dibenzyldecahydro-2-oxoimidazo[4,5-c]thieno[1,2-a]thiolium/nitrosylpentacyano-ferrate", "values": [{"measurement": "storability", "setting": "[7]", "value": "can be stored for a very long time"}, {"measurement": "Infusion dosage required for lowering of blood pressure", "setting": "[2]; -20 mm Hg, cat", "value": 1.5, "unit": "ug/kg · min"}, {"measurement": "Infusion dosage required for lowering of blood pressure", "setting": "[2]; -30 mm Hg, cat", "value": 2.3, "unit": "ug/kg · min"}, {"measurement": "Infusion dosage required for lowering of blood pressure", "setting": "[2]; -40 mm Hg, cat", "value": 3.5, "unit": "ug/kg · min"}, {"measurement": "Infusion dosage required for lowering of blood pressure", "setting": "[2]; -50 mm Hg, cat", "value": 5.8, "unit": "ug/kg · min"}, {"measurement": "Infusion dosage required for lowering of blood pressure", "setting": "[2]; -55 mm Hg, cat", "value": 7.8, "unit": "ug/kg · min"}, {"measurement": "Infusion dosage required for lowering of blood pressure", "setting": "[2]; -75 mm Hg, cat", "value": 40, "unit": "ug/kg · min"}, {"measurement": "limit of activity (in words)", "setting": "[2]; compared with all the other substances or mixtures", "value": "significantly higher limit of activity than all the other substances or mixtures"}, {"measurement": "strength of activity (in words)", "setting": "[2]; slight lowering of the blood pressure (to -30 mm Hg)", "value": "approximately comparable strengths of activity; also recorded: shows up best"}, {"measurement": "solubility in aqueous ethanol", "setting": "[8]; aqueous ethanol", "value": "dissolves readily"}, {"measurement": "solubility in water, absolute ethanol and cyclohexane", "setting": "[8]; water, absolute ethanol and cyclohexane", "value": "only very slightly soluble"}]}, {"molecule": "bis-(trimethaphan)-nitroprusside", "values": [{"measurement": "storability", "setting": "[7]", "value": "can be stored without further additives"}, {"measurement": "solubility of mixtures / TNP: borderline amount of solvent", "setting": "[1]; 5% dextrose, 125 + 500 mg (1 + 4), TNP 40 mg (highly purified product)", "value": 100, "unit": "mL"}, {"measurement": "solubility of mixtures / TNP: borderline amount of solvent", "setting": "[1]; 40% ethanol, TNP 40 mg", "value": 25, "unit": "mL"}, {"measurement": "solubility of mixtures / TNP: borderline amount of solvent", "setting": "[1]; 60% ethanol, 125 + 500 mg (1 + 4), TNP 40 mg", "value": 2, "unit": "mL"}, {"measurement": "synergistic activity", "setting": "[2]; nitroprusside and trimethaphan ions in molar ratio 1:2, FIG. 4 / Table I", "value": "maximum synergistic activity"}, {"measurement": "ethanol concentration required for concentrated stock solution", "setting": "[6]; ethanol-water, room temperature (22° C.), FIG. 1", "value": "at least 40%"}, {"measurement": "solubility in water (in words)", "setting": "[6]; water", "value": "poorly soluble in water"}, {"measurement": "solubility in weaker ethanol", "setting": "[6]", "value": "no longer completely soluble"}]}, {"molecule": "bis-(trimethaphan)-nitroprusside semihydrate", "values": [{"measurement": "stability at storage", "setting": "[7]", "value": "stable"}, {"measurement": "water loss at storage", "setting": "[7]", "value": "does not lose water"}, {"measurement": "solubility in 60% ethanol", "setting": "[8]; room temperature", "value": "about 3%"}, {"measurement": "solubility in water", "setting": "[8]; room temperature", "value": 0.2, "unit": "%"}]}]}
